The molecules below were run on lectin PPA (assay: Hemagglutination-inhibition assay of the lectin PPA with monosaccharide, disaccharide and glycoprotein). Settings: glycoprotein tested from 100 micromolar; 6.25% mouse erythrocyte; lectin PPA diluted 128-fold.
Type: binding, Philyra pisum
Description: In order to confirm that the lectin PPA of the present invention recognizes N-glycolylneuraminic acid, hemagglutination-inhibition reaction was performed using monosaccharide, disaccharide and glycoprotein. 50 Microliters of a 128-fold diluted solution of lectin PPA in 0.15 molar NaCl and 50 microliters of each of 1 milligram per milliliter solutions of monosaccharides (e.g., β-D-glucose, D-galactose, L-fucose, D-mannose, N-acetylneuraminic acid, N-glycolylneuraminic acid, N-acetyl-D-glucosamine, N-acetyl-D-galactosamine and methyl-α-D-glucopoyranoside), disaccharide (e.g., α-lactose, β-lactose, D-lactose, βgentiobiose, maltose, D-raffinose or D-cellobiose) and glycoprotein (e.g., bovine submaxillary mucin, thyroglobulin, fetuin and asialofetuin) in 0. 15 molar NaCl were added to the each well of a 96-well microplate. After the reaction for one hour or more at room temperature, 50 microliters of the erythrocyte suspended in 0.15 molar NaCl was added to each well and reacted for one hour at room temperature.
The negative sign (−) means that there is no hemagglutination-inhibition for 100 millimolar monosaccharide/disaccharide and 100 micromolar glucoprotein. NeuGc and NeuAc represent N-glycolylneuraminic acid and N-acetylneuraminic acid, respectively.

Molecule	Erythrocyte agglutination inhibition concentration
Asialofetuin: glycoprotein without sialic acid, does not contain N-glycolylneuraminic acid	— (The negative sign (−) means that there is no hemagglutination-inhibition for 100 millimolar monosaccharide/disaccharide and 100 micromolar glucoprotein)
Fetuin: glycoprotein with NeuAc, does not contain N-glycolylneuraminic acid	— (The negative sign (−) means that there is no hemagglutination-inhibition for 100 millimolar monosaccharide/disaccharide and 100 micromolar glucoprotein)

Same assay, conditions: glycoprotein; 6.25% mouse erythrocyte; lectin PPA diluted 128-fold; minimum concentration

Molecule	Erythrocyte agglutination inhibition concentration
Thyroglobulin: glycoprotein containing N-glycolylneuraminic acid	0.4 µM
Bovine submaxillary mucin	1.3 µM

Same assay, conditions: monosaccharide/disaccharide tested from 100 mM; 6.25% mouse erythrocyte; lectin PPA diluted 128-fold

Molecule	Erythrocyte agglutination inhibition concentration
OC[C@H]1O[C@H](O[C@H]2[C@H](O)[C@@H](O)[C@H](O)O[C@@H]2CO)[C@H](O)[C@@H](O)[C@@H]1O [Maltose]	— (The negative sign (−) means that there is no hemagglutination-inhibition for 100 millimolar monosaccharide/disaccharide)
CC(=O)N[C@H]1C(O)O[C@H](CO)[C@H](O)[C@@H]1O (stereo partly drawn) [N-acetyl-D-galactosamine]	— (The negative sign (−) means that there is no hemagglutination-inhibition for 100 millimolar monosaccharide/disaccharide)
O=C[C@@H](O)[C@@H](O)[C@H](O)[C@H](O)CO [D-mannose]	— (The negative sign (−) means that there is no hemagglutination-inhibition for 100 millimolar monosaccharide/disaccharide)
CC(=O)N[C@H]1C(O)O[C@H](CO)[C@@H](O)[C@@H]1O (stereo partly drawn) [N-acetyl-D-glucosamine]	— (The negative sign (−) means that there is no hemagglutination-inhibition for 100 millimolar monosaccharide/disaccharide)
OC[C@H]1O[C@@H](OC[C@H]2O[C@@H](O)[C@H](O)[C@@H](O)[C@@H]2O)[C@H](O)[C@@H](O)[C@@H]1O [β-gentiobiose]	— (The negative sign (−) means that there is no hemagglutination-inhibition for 100 millimolar monosaccharide/disaccharide)
CC(=O)N[C@H]1[C@H]([C@H](O)[C@H](O)CO)OC(O)(C(=O)O)C[C@@H]1O (some centres unmarked) [N-acetylneuraminic acid]	— (The negative sign (−) means that there is no hemagglutination-inhibition for 100 millimolar monosaccharide/disaccharide)
OC[C@H]1O[C@@H](O[C@H]2[C@H](O)[C@@H](O)C(O)O[C@@H]2CO)[C@H](O)[C@@H](O)[C@H]1O (stereo partly drawn) [D-lactose]	— (The negative sign (−) means that there is no hemagglutination-inhibition for 100 millimolar monosaccharide/disaccharide)
OC[C@H]1O[C@H](OC[C@H]2O[C@H](O[C@]3(CO)O[C@H](CO)[C@@H](O)[C@@H]3O)[C@H](O)[C@@H](O)[C@@H]2O)[C@H](O)[C@@H](O)[C@H]1O [D-raffinose]	— (The negative sign (−) means that there is no hemagglutination-inhibition for 100 millimolar monosaccharide/disaccharide)
O=C[C@H](O)[C@@H](O)[C@@H](O)[C@H](O)CO [D-galactose]	— (The negative sign (−) means that there is no hemagglutination-inhibition for 100 millimolar monosaccharide/disaccharide)
CO[C@H]1O[C@H](CO)[C@@H](O)[C@H](O)[C@H]1O [Methyl-α-D-glucopyranoside]	— (The negative sign (−) means that there is no hemagglutination-inhibition for 100 millimolar monosaccharide/disaccharide)
OC[C@H]1O[C@@H](O[C@H]2[C@H](O)[C@@H](O)[C@@H](O)O[C@@H]2CO)[C@H](O)[C@@H](O)[C@H]1O [α-lactose]	— (The negative sign (−) means that there is no hemagglutination-inhibition for 100 millimolar monosaccharide/disaccharide)
OC[C@H]1O[C@@H](O[C@H]2[C@H](O)[C@@H](O)[C@H](O)O[C@@H]2CO)[C@H](O)[C@@H](O)[C@@H]1O [D-cellobiose]	— (The negative sign (−) means that there is no hemagglutination-inhibition for 100 millimolar monosaccharide/disaccharide)
OC[C@H]1O[C@@H](O[C@H]2[C@H](O)[C@@H](O)[C@H](O)O[C@@H]2CO)[C@H](O)[C@@H](O)[C@H]1O [β-lactose]	— (The negative sign (−) means that there is no hemagglutination-inhibition for 100 millimolar monosaccharide/disaccharide)
C[C@H](O)[C@@H](O)[C@@H](O)[C@H](O)C=O [L-fucose]	— (The negative sign (−) means that there is no hemagglutination-inhibition for 100 millimolar monosaccharide/disaccharide)
OC[C@H]1O[C@@H](O)[C@H](O)[C@@H](O)[C@@H]1O [beta.-D-glucose]	— (The negative sign (−) means that there is no hemagglutination-inhibition for 100 millimolar monosaccharide/disaccharide)

Same assay, conditions: monosaccharide/disaccharide; 6.25% mouse erythrocyte; lectin PPA diluted 128-fold; minimum concentration

Molecule	Erythrocyte agglutination inhibition concentration
O=C(CO)N[C@H]1[C@H]([C@H](O)[C@H](O)CO)OC(O)(C(=O)O)C[C@@H]1O (some centres unmarked) [N-glycolylneuraminic acid]	190 µM

Same assay, conditions: summary of Table 2

Molecule	inhibition of agglutination (in words)
O=C(CO)N[C@H]1[C@H]([C@H](O)[C@H](O)CO)OC(O)(C(=O)O)C[C@@H]1O (some centres unmarked) [N-glycolylneuraminic acid]	inhibited the agglutination
Thyroglobulin: glycoprotein containing N-glycolylneuraminic acid	inhibited the agglutination
Bovine submaxillary mucin	inhibited the agglutination

What follows are molecules tested on peroxidase-labeled lectin PPA (assay: ELISA with peroxidase-labeled lectin PPA on coated glycoproteins). Settings: 1 milligram per milliliter glycoprotein solution diluted 10^3 to 10^8-fold, FIG. 3.
Type: binding, Philyra pisum
Description: In order to more accurately verify the hemagglutination-inhibition reaction of the lectin PPA, ELISA was conducted. Specifically, the lectin PPA bound to a horse radish peroxidase (HRP) was used in examining the reactivity and sensitivity against glucoproteins by ELISA. First, 5.03 milligrams of HRP were dissolved in 0.2 milliliter of a 1.25% glutaraldehyde (EM grade)-100 millimolar sodium phosphate buffer (pH 6.8) and allowed to stand for 18 hours at room temperature. Then, 20 microliters of glycerol and 20 microliters of xylene cyanol were added thereto and this was used in performing gel filtration with a SEPHADEX (TM) G-75 column equilibrated with a 100 millimolar phosphate buffer and 0.15 molar NaCl (pH 7.2). After applying the glutaraldehyde-treated HRP onto the column and eluting with 0.15 molar NaCl, about 1 milliliter of the brownish fraction containing HRP solution was collected. This fraction was dialyzed with a 100 millimolar sodium carbonate-sodium bicarbonate buffer solution (pH 9.5) containing sucrose and followed by the same buffer without sucrose. To 300 microliters of HRP thus obtained were added 150 microliters of lectin PPA (concentration of about 0.4 milligram per milliliter concentration) containing with 0.15 molar NaCl. After confirming the pH value 9.0 or more, the resultant solution was incubated for 24 hours at 4° C. to prepare peroxidase-labeled lectin PPA. In the mean time, 1 milligram of each of fetuin, asialofetuin and bovine submaxillary mucin was dissolved in 1 milliliter of PBS and serial 10-fold dilutions were made. […] Then, the absorbance at 415 nanometers of each well was measured with a microplate reader. To eliminate the error of each well caused by the time difference while adding ABTS, a second measurement was performed after 10 minutes to determine the difference in the absorbances between the time of 10 minutes and 0 minute. […] The absorbance was decreased with the lowering of the concentration.

Molecule	ELISA response (absorbance at 415 nanometers)
Asialofetuin: glycoprotein without sialic acid, does not contain N-glycolylneuraminic acid	no response occurred
Bovine submaxillary mucin	a response in which absorbance value is increased was observed
Fetuin: glycoprotein with NeuAc, does not contain N-glycolylneuraminic acid	no response occurred

From patent US7015313B2, “Lectin protein prepared from Korean marine crab Philyra pisum, process for preparing the same and the use thereof” (priority 2001, dated 2006)
